Source: a melting point compilation (Tetko et al.; mined from patent text by program, amines drawn as free bases though some values may be those of a salt)

Row | SMILES | melting point
1 | CC(C)[C@](C)(S)C(=O)O | 78 to 80 °C
2 | COc1ccc(CNc2ncnc3c2ncn3C2OC(CN=[N+]=[N-])C(O)C2O)cc1 (stereo not given) | 191 °C
3 | CC(OC1CCCN(Cc2ncn[nH]2)C1c1ccccc1)c1cc(C(F)(F)F)cc(C(F)(F)F)c1 (stereo not given) | 182 to 183 °C
4 | CCCCc1nc2cc(C(=O)O)cc(C(=O)O)c2n1Cc1ccccc1Cl | 299 to 301 °C
5 | CN(CC(=O)O)C(=O)CCS | 157 to 158 °C
6 | C=CCc1cc2c(cc1O)C(C)(C)C(O)O2 (stereo not given) | 66 to 67 °C
7 | CCc1cc2c(cc1F)c(S(C)(=O)=O)c(-c1ccc(S(=O)(=O)NC(C)(C)C)cn1)n2-c1ncccn1 | 244 to 248 °C
8 | O=C(C=Cc1ccc(N2CCCC2)nc1)N1CCc2c([nH]c3ccccc23)C1c1ccc2c(c1)CCO2 (stereo not given) | 201 °C
9 | CN(C)C(=O)C1(c2ccccc2)CCNCC1 | 95 °C
10 | CCCOc1ccc(C=CC(=O)c2c(OC)cc(OC)cc2OC(=O)CC)cc1 | 102 °C
11 | CCc1[nH]n(C2CCCC2)c2nc(Cc3ccc(C(F)(F)F)cc3)nc(=O)c1-2 | 212 to 213 °C
12 | O=[N+]([O-])c1cc(S(=O)c2ccc(-c3ccccc3)cc2)ccc1Cl (stereo not given) | 98 to 99 °C
13 | CN(C)CCc1[nH]c2ccccc2c1CC#N | 122 to 127 °C
14 | Cc1nc(C(=O)NC2CC2)c2n1-c1ccc(Cl)cc1C(c1ccccc1F)=NC2 | 196 to 197 °C
15 | O=C(O)CCCn1ccc(=O)c(OCc2ccccc2)c1C(O)c1ccccc1 (stereo not given) | 205 to 210 °C
16 | Nc1noc(C23CCCN(CC2)C3)n1 (stereo not given) | 197 to 199 °C
17 | CS(=O)(=O)c1cc(C(O)C2CCCCC2)c2ccccc2n1 (stereo not given) | 83 °C
18 | CN1CCN(c2cc3c(Br)cccc3c(=O)[nH]2)CC1 | 240 to 241 °C
19 | CC=Cc1ccccc1Oc1ccc(Oc2ccccc2C=CC)nn1 | 165 to 168 °C

Row | SMILES | melting point
20 | CC(=O)c1ccc2c(c1)C(C)(C)CC(=O)N2C | 75 to 77 °C
21 | CSc1nn2c(N3CCN(C)CC3)nc(C)nc2c1S(=O)(=O)c1ccccc1 | 169 to 171 °C
22 | C#CCOC(=O)c1ncn2c1[C@@H]1CCCN1C(=O)c1c(Cl)cccc1-2 | 213 to 214 °C
23 | CC(=CC#N)CCN1C(=O)c2ccccc2S1(=O)=O | 117 to 118 °C
24 | c1ccc(C2(Oc3ccccn3)CCNCC2)cc1 | 86 to 87 °C
25 | CCCOC(=O)C1=C(C)NC(C)=C(C(=O)N[C@H](C(=O)OCC)C(C)C)[C@@H]1c1cccc([N+](=O)[O-])c1 | 119 to 121 °C
26 | O=[N+]([O-])C1=C2N(Cc3ccc(Cl)nc3)CCCN2C2CCC1O2 (stereo not given) | 143 to 145 °C
27 | N#CSc1ccc(N)c(C(F)(F)F)c1 | 52 to 55 °C
28 | O=C(Oc1ccccc1)Oc1c2c(nc3ccccc13)CCN(C(=O)Oc1ccccc1)CC2 | 232 °C
29 | CC(C)N1C(=O)c2ccccc2N(C(=O)CCl)S1(=O)=O | 133 to 135 °C
30 | N#Cc1cc(Cl)c(Cl)c(-c2ccc(Cl)cc2)n1 | 142 to 145 °C
31 | COc1ccc(CCOc2cncc(-c3cccc(C(=O)O)c3)c2)cc1OC | 181 to 182 °C
32 | CC(C)(C)OC(=O)c1cc(OCc2ccccc2)c(C(=O)c2c(OCc3ccccc3)cccc2C(=O)O)c(OCc2ccccc2)c1 | 151 to 156 °C
33 | Cc1cc(=O)c(C(=O)Oc2ccccc2)nn1-c1ccc(Cl)cc1 | 140 to 146 °C
34 | CS(=O)(=O)c1ccc(-c2cnn(-c3cccc(-c4ccc(F)cc4)c3)c(=O)c2-c2ccc(F)cc2)cc1 | 222 to 225 °C
35 | CCCN(c1cc(Cl)ncn1)n1cccc1 | 52 to 54 °C
36 | CC(C)(C)OC1CCC2(C)C(=CC(=O)C3C4CCC(=O)C4(C)CCC32)C1 (stereo not given) | 189 to 191 °C
37 | CCCCn1c(=O)c(NC(=O)Nc2c(C(C)C)cccc2C(C)C)c(-c2cccc(CCCO)c2)c2cccnc21 | 188 to 189 °C
38 | CC(C)(C)OC(=O)N1CCN(C(=O)OC[C@@]2(C)Cn3cc([N+](=O)[O-])nc3O2)CC1 | 211 to 212 °C

Continued, values first:

Row | melting point | SMILES
39 | 181 °C | O=C(NC(=O)c1ccc(F)cc1Cl)Nc1ccc(C(F)(F)F)c(F)c1
40 | 280 °C | CNN(NC)C(=O)Nc1cccc2c1C(=O)c1c-2n[nH]c1-c1ccc(OC)s1
41 | 111 to 112 °C | COC(=O)C(=O)c1cc2ccccc2n1S(=O)(=O)c1ccccc1
42 | 202 to 204 °C | CCOC(=O)c1cn(CCBr)c2nc(N3CCN(C(C)=O)CC3)ncc2c1=O
43 | 82 °C | N#Cc1c[nH]cc1-c1cccc(C(F)(F)F)c1Cl
44 | 158 to 159 °C | COC(CN/C=C\C(=C(C#N)C#N)c1ccc2cc(N(C)C)ccc2c1)OC
45 | 107 °C | COc1ccc(CSCC(=O)NO)cc1
46 | 79 °C | CSC(=S)C1(c2ccccn2)CCCCS1 (stereo not given)
47 | 96 to 97 °C | Cc1cccc(N2CCN(CCc3c(C)nc4cc(C)ccn4c3=O)CC2)c1
48 | 159 to 161 °C | COC(=O)N1Cc2ccccc2C(c2ccccc2Cl)c2ccccc21 (stereo not given)
49 | 142 to 143 °C | COC(=O)c1ccc(Cn2nnc3ccc(NC(=O)OC4CCCC4)cc32)c(OC)c1
50 | 55 to 57 °C | Cc1cccc(C2(C)OC(C)C(C)O2)c1NC(=O)CCl (stereo not given)
51 | 116 to 119 °C | CSc1nc2cnc3ccccc3c2s1
52 | 97.5 to 98 °C | CCCCC(=O)N(c1ccn(C)n1)C1CCCCC1
53 | 261 °C | CC(=O)Nc1ccc2nc(-c3ccccc3)cc(OCC(=O)N3CCOCC3)c2c1
54 | 109 to 112 °C | CC(C)(C)NC(=O)[C@@H]1[C@H](O)CCN1C(=O)[C@@H](O)[C@H](Cc1ccccc1)NC(=O)[C@H](CC(N)=O)NC(=O)OCc1ccccc1

Row | melting point | SMILES
55 | 103 to 104 °C | O=[N+]([O-])c1ccc(O)c(C(F)(F)F)c1
56 | 119 to 120 °C | CCOC(=O)C1CCN(c2nnc(NCc3ccc4c(c3)OCO4)c3cnccc23)CC1
57 | 185 °C | N#Cc1cc(F)c(Sc2nc[nH]n2)cc1F
58 | 198 to 204 °C | Nc1ccc2c(C(F)(F)F)cc(C(F)(F)F)nc2n1
59 | 177 to 178 °C | CCOC(=O)Nc1ccc(C(=O)OCC)nc1
60 | 238 °C | CN1CCC(c2c(O)cc(O)c3c(=O)cc(-c4ccc(C(F)(F)F)cc4)oc23)C1CO (stereo not given)
61 | 108 to 109 °C | Fc1cccc(N=C2SCCN2C(=S)Nc2cccc(F)c2)c1
62 | 63 to 68 °C | CCOC(=O)c1ccc(OCCCCCCc2cccc(O)c2O)cc1O
63 | 106 to 108 °C | C=C(C)C(=O)Oc1cc(C(=O)OCC)cc(O)c1O
64 | 197 to 199 °C | O=c1cc(-c2ccc(OCCCCl)cc2)cn[nH]1
65 | 220 °C | Cc1ccc(S(=O)(=O)NC(=O)NCCc2ccc(-n3c(C(C)O)nc4cc(C(F)(F)F)c(Cl)cc43)cc2)cc1 (stereo not given)
66 | 166 to 167 °C | CCOC(=O)c1cc(NCc2ccccc2)c(Sc2ccccc2C)c(S(N)(=O)=O)c1
67 | 197 to 198 °C | Nc1cc(-c2ccccc2)c(S(N)(=O)=O)cc1S(N)(=O)=O
68 | 220 °C | O=C(Nc1cccc2cnccc12)NC1CC2(CCOCC2)Oc2ccccc21 (stereo not given)
69 | 195 °C | COC(=O)CCCCCCCCOC1OC(CO)C(O)C(OC2OC(CO)C(O)C(O)C2OC2OC(C)C(O)C(O)C2O)C1NC(C)=O (stereo not given)
70 | 162 to 167 °C | CC(=O)Nc1cc(CN(C)C)c2ncc(C#N)c(Nc3cccc(Br)c3)c2c1
